Assay results taken from EP4623908A1, “USE OF (-)-EPIGALLOCATECHIN GALLATE COMPOUND” (CF Pharmtech, Inc., priority 2022, dated 2024).

How the values were obtained:
[1] = Pharmacokinetics of low-dose tracheal nebulization and oral gavage in rat plasma and lungs (Example 3); assay type: in vivo, rats; settings: for Lung AUC0-t / Lung Cmax: rat lung tissue, average
Procedure: As described in Example 1, the administration methods of oral gavage or tracheal nebulization of different doses of EGCG solution in rats were used to study the pharmacokinetic parameters of the drug in the lungs. The tracheal nebulization doses were 0.05 mg/kg, 0.1 mg/kg, 0.2 mg/kg, and 0.4 mg/kg, with 6-8 rats per dose group. The oral gavage dose was 60 mg/kg, with 6 rats.
The blood sampling method and sample processing were as described in Example 2. The blood collection time points for this experiment were 5 minutes, 2 hours, 6 hours, 8 hours, 10 hours, and 16 hours post-administration, with approximately […] of whole blood collected at each time point.

[2] = tested on: Bleomycin-Induced Pulmonary Fibrosis in Mice; assay: Bleomycin-induced pulmonary fibrosis model in mice (Example 4); assay type: in vivo, C57BL/6J mice; settings: for Hydroxyproline Content: mouse lung tissue, Mean±SEM
Procedure: A total of 56 male C57BL/6J mice, SPF grade, aged 7-10 weeks, with a body weight range of 20-35g, were purchased from SPF (Beijing) Biotechnology Co., Ltd..
Injectable Bleomycin (BLM, 15mg/vial, batch number 20067411): Hanhui Pharmaceutical Co., Ltd. • Solvent 1: Components include purified water, citric acid, and sodium citrate, a transparent, clear liquid. • Solvent 2: Sodium chloride injection (batch number K21080307), purchased from Hanhui Pharmaceuticals Co., Ltd (formerly Hisun-Pfizer Pharmaceuticals Co., Ltd.). • Hydroxyproline (HYP) assay kit: Purchased from Merck Sigma-Aldrich.
The mice were randomly divided into the following groups, with 8 mice in each group: • Sham operation group (normal control group), • Pulmonary fibrosis model group, • Oral gavage group, • Tracheal Nebulization groups 1-4.
On Day 1 (D1), the normal control group mice were administered solvent 2 (sodium chloride injection, 1 mL/kg) via tracheal nebulization. All other groups were administered bleomycin (2 mg/kg, 1 mL/kg) via tracheal nebulization in the morning and afternoon to construct the pulmonary fibrosis model.
The oral gavage dose for mice was 100 mg/kg (calculated based on the oral dose of 60 mg/kg for rats, according to FDA guidelines, and converted for equivalent oral dosage in mice by body surface area). The tracheal nebulization doses were 0.2 mg/kg, 0.4 mg/kg, 0.8 mg/kg, and 1.6 mg/kg. Both the normal control group and the pulmonary fibrosis model group were administered solvent 1 via tracheal nebulization once a day, starting on D10 post-model induction.
Mice from each group were anesthetized on Day 22 via intraperitoneal injection of chloral hydrate (50 mg/mL, 0.1 mL/10g) and sacrificed by abdominal aorta blood collection. All animals underwent dissection, and lung tissues were preserved. The total lung weight (including animals that died unexpectedly or were euthanized) was measured. The left lung was excised and stored at below -60°C for hydroxyproline content testing. The remaining right lung tissue and bronchioles were fixed in 10% neutral-buffered formalin and processed for routine histology: paraffin embedding, sectioning, HE staining, and Masson staining.
Lung coefficient = lung weight (mg)/body weight (g). [formula] Early-stage inflammation with infiltration of inflammatory cells, followed by the proliferation of fibroblasts and excessive collagen deposition, leads to an increase in lung coefficient. Thus, the lung coefficient serves as an indirect indicator of the inflammation and fibrosis degree in mice.
Mice were weighed prior to grouping, on the model induction day, after the first drug administration, and every 3 days thereafter. […] Changes in body weight reflect the effect of the drug administration. Statistical analysis was performed using two-way ANOVA and Tukey's multiple comparison test.
Lung tissue inflammation, fibroproliferation, and other pathological changes were evaluated by optical microscopy on HE-stained sections. Masson staining was used to assess the degree of fibrosis in lung tissue. Standardized terminology was applied to classify fibrosis, inflammatory cell infiltration, alveolar hemorrhage, dilation, epithelial hyperplasia, and fibrous exudate using a 4-point scale (mild, moderate, severe, and very severe).
Hydroxyproline content in lung tissue was measured according to the instructions of the assay kit.
Statistical tests commonly used in the field, such as Student's t-test, chi-square test, Mann-Whitney U test, Kruskal-Wallis test (H test), Jonckheere-Terpstra test, and Wilcoxon test, were performed. Statistical analysis was done using SPSS (13.0) software. Results are presented as mean ± standard error. Overall differences were evaluated by One-Way ANOVA for homogeneity of variance, followed by Dunnett's test for inter-group comparisons. When normality tests failed, Kruskal-Wallis test was used for inter-group comparisons. Two-Way ANOVA and Tukey's test were used for multiple comparisons between groups. […]

[3] = tested on: TGFβ receptor 1 and 2 (TGFβR1/2) kinases; settings: cited from earlier work
[4] = 26 IPF patients; oral co-administration; cited from earlier work
[5] = Tracheal Nebulization (inh) 0.05 mg/kg
[6] = Tracheal Nebulization (inh) 0.1 mg/kg
[7] = Tracheal Nebulization (inh) 0.2 mg/kg
[8] = Tracheal Nebulization (inh) 0.4 mg/kg
[9] = rat, after oral gavage 60 mg/kg

## O=C(O[C@@H]1Cc2c(O)cc(O)cc2O[C@@H]1c1cc(O)c(O)c(O)c1)c1cc(O)c(O)c(O)c1 [EGCG, (-)-Epigallocatechin gallate]
[1]; lung, inhaled or intranasal, rat, inhalation dose above 0.2 mg/kg, read-out: maximum drug concentration (Cmax) in the lungs
  Cmax: > 1000 ng/mL
[1]; [5]
  Lung AUC0-t: 284.7 ng·h/mL
  Lung Cmax: 79.6 ng/mL
[1]; [6]
  Lung AUC0-t: 1031.4 ng·h/mL
  Lung Cmax: 220.4 ng/mL
[1]; [7]
  Lung AUC0-t: 3082.7 ng·h/mL
  Lung Cmax: 1038.0 ng/mL
[1]; [8]
  Lung AUC0-t: 11764.1 ng·h/mL
  Lung Cmax: 3180.0 ng/mL
[1]; oral gavage (po) 60 mg/kg
  Lung AUC0-t: 226.4 ng·h/mL
  Lung Cmax: 43.4 ng/mL
[1]; [9]
  lung concentration: less than 100 ng/mL
  plasma drug concentrations: less than 100 ng/mL
[1]; rat, inh 0.05 mg/kg vs oral gavage 60 mg/kg
  inhalation dose as fraction of the oral dose at comparable lung drug concentration: 1/1200
[1]; rat, oral gavage 60 mg/kg
  peak concentration in the lungs of the oral administration: 32 ng/mL
[1]; rat, tracheal nebulization of 0.1, 0.2, or 0.4 mg/kg, for up to 16 hours
  drug concentration in the lungs: greater than 50 ng/mL
[2]; aerosol dose 0.4mg/kg or higher, P < 0.05
  fibrosis score vs model group: significant reduction in pulmonary fibrosis
[2]; all tracheal nebulization groups (0.2, 0.4, 0.8, 1.6mg/kg), 0.4mg/kg most effective
  inhibiting alveolar expansion: significant differences compared to the model group
[2]; all tracheal nebulization groups, 0.4mg/kg best (P < 0.05)
  inhibiting inflammatory cell infiltration: reduced inflammatory cell infiltration
[2]; inhaling 0.8mg/kg and 1.6mg/kg, D22
  fibrosis in the lungs (Masson's staining): almost close to the level of the healthy control group
[2]; D22, Inh. 0.2mg/kg once a day from D10
  Hydroxyproline Content: 2.807 ± 0.3982 µg/µL
[2]; D22, Inh. 0.4mg/kg once a day from D10
  Hydroxyproline Content: 2.046 ± 0.690 µg/µL
[2]; D22, Inh. 0.8mg/kg once a day from D10
  Hydroxyproline Content: 1.033 ± 0.1476 µg/µL
[2]; D22, Inh. 1.6 mg/kg once a day from D10
  Hydroxyproline Content: 1.67 ± 0.1888 µg/µL
[2]; D22, P.O 100mg/kg once a day from D10
  Hydroxyproline Content: 1.928 ± 0.1326 µg/µL
[2]; oral administration 100 mg/kg, difference not significant, D22
  collagen deposition (Masson's staining) vs model group: decreased slightly
[2]; oral administration 100 mg/kg, no significant difference vs model group, D22
  lung tissue histopathology (H&E staining): slight improvement in lung tissue morphology
[2]; oral administration (oral gavage) 100 mg/kg
  inhibiting inflammatory cell infiltration: no anti-inflammatory effect
[2]; oral gavage 100 mg/kg
  alveolar inflammation scores vs model group: no significant difference
  body weight: weight gain in the oral gavage group was slower
  fibrosis score vs model group: did not show a significant difference
  lung coefficient vs model group: did not show a significant difference
[2]; tracheal nebulization
  alveolar inflammation scores vs model group: significantly suppressed the further development of alveolar inflammation
[2]; tracheal nebulization 0.2mg/kg and 0.4mg/kg
  inhibiting alveolar hemorrhage: significantly better than the oral gavage group
[2]; tracheal nebulization 0.2mg/kg and 0.4mg/kg, P < 0.01, P < 0.001
  lung coefficient vs model group: significantly reduced
[2]; tracheal nebulization 0.2mg/kg and 0.4mg/kg, significant vs model group
  body weight: returned to baseline levels by Day 22
[2]; tracheal nebulization 0.2mg/kg, 0.4mg/kg, and 0.8mg/kg, D22
  hydroxyproline content in lung tissue (in words): dose-dependently reduced
[2]; tracheal nebulization 1.6mg/kg
  inhibiting alveolar fibrous exudates: significant differences compared to the model group
[2]; tracheal nebulization, best at 0.4mg/kg and 0.8mg/kg, D22
  lung tissue histopathology (H&E staining): reduced alveolar interstitial proliferation
[2]; tracheal nebulization, dose-response, especially 0.4mg/kg and above, D22
  collagen deposition (Masson's staining) vs model group: significantly reduced collagen deposition
[3]
  inhibition of TGFβR1/2 kinases: effectively inhibit
[4]
  reduction of the plasma exposure of Nintedanib on co-administration: about 21%
